Test results: article PMC2410169, “N-hexanoyl-sphingomyelin potentiates in vitro doxorubicin cytotoxicity by enhancing its cellular influx” (British Journal of Cancer, 2004)
Read-outs that look alike come from different tables or passages of the source.

Assays:
BAEC [1] = assay type: cell-based, bovine; settings: for Effect on doxorubicin uptake (in words): assay as for C6-SM, Table 1
Experimental: (§1) For intracellular doxorubicin measurements, cells were cultured in flat-bottom 96-well plates. At confluence, cells were changed to a serum-free medium and exposed to 50 μM doxorubicin during 60 min (unless indicated otherwise). After washing with ice-cold PBS, cells were lysed in 1% (w v^−1) Triton X-100 in water. Native fluorescence intensities were then measured by a Perkin-Elmer Victor Wallac II fluorescence microplate reader, using λex 485 nm and λem 535 nm filters. Additional probes and drugs that were tested for cellular uptake during 60 min incubations, either in the absence or presence of lipid, were hydrazide-AF488 (35 μM, λex 485 nm, λem 535 nm), sulphorodamine-101 (400 μM, λex 355 nm, λem 620 nm), propidium iodide (300 μM, λex 355 nm, λem 535 nm), o-phtaldialdehyde (1 mM, λex 485 nm, λem 535 nm), topotecan (30 μM, λex 355 nm, λem 535 nm), epirubicin (50 μM, λex 485 nm, λem 535 nm), bisbenzimidine (10 μM, λex 355 nm, λem 460 nm), camptothecin (30 μM, λex 355 nm, λem 460 nm), daunorubicin (25 μM, λex 485 nm, λem 535 nm) and idarubicin (20 μM, λex 485 nm, λem 535 nm).

[2] = tested on: A431 (epidermoid carcinoma); experiment: Cellular doxorubicin accumulation, fluorimetry of cell lysates; assay type: cell-based, human; settings: 50 μM doxorubicin, 60 min
Experimental: as §1

[3] = tested on: KB (oesophagal carcinoma); experiment: as above; assay type: cell-based, human; settings: 50 μM doxorubicin, 60 min
Experimental: as §1

[4] = tested on: MCF-7 (mammary adenocarcinoma); experiment: as above; assay type: cell-based, human; settings: 50 μM doxorubicin, 60 min
Experimental: as §1

BAEC [5] = tested on: BAEC
Experimental: (§4) For viability assessment, cells were cultured in flat-bottom 96-well plates. After experimental treatments, 100 μg of the mitochondrial dehydrogenase substrate MTT was added to each well ([Carmichael et al, 1987]). Cells were then incubated for 60 min at 37°C. After centrifugation (3000 rpm, 10 min) supernatants were removed. The precipitated blue formazan products were then dissolved in 100 μl DMSO and absorbencies were read in a Bio-Tek Instruments EL 340 photospectrometric microplate reader at 540 nm. Background absorbencies were subtracted and values from untreated control cells were set at 100% viability.
(§5) After washing away remaining extracellular drug and lipid, cells were cultured for another 48 h. Viability was then assessed by the MTT assay, which relies on the fact that only mitochondria of viable cells have the capacity to convert the MTT substrate ([Carmichael et al, 1987]).

[6] = tested on: kidney fibroblasts from Mrp1/Mdr1a/Mdr1b triple knockout mice; experiment: Cellular doxorubicin accumulation in ABC-transporter knockout fibroblasts; assay type: cell-based
Experimental: (§2) The following cell types were cultured in Dulbecco's modified Eagle's medium (DMEM) containing 10% (v v^−1) foetal calf serum: primary bovine aortic endothelial cells (BAEC; passage 14–19), kindly provided by Dr A Haimovitz-Friedman (Memorial Sloan-Kettering Cancer Center, New York City NY, USA); MCF-7, KB and A431 carcinoma cells, purchased from the American Type Culture Collection (Manassas VA, USA); SV40 large-T antigen-immortalised kidney fibroblasts from Mrp1/Mdr1a/Mdr1b triple knockout mice and control renal fibroblasts ([Wijnholds et al, 2000]; kindly provided by Dr AH Schinkel, The Netherlands Cancer Institute, Amsterdam). […] All culture media were supplemented with 100 U ml^−1 penicillin, 100 μg ml^−1 streptomycin and 4 mM L-glutamine. For intracellular doxorubicin measurements, cells were cultured in flat-bottom 96-well plates. […] After washing with ice-cold PBS, cells were lysed in 1% (w v^−1) Triton X-100 in water. Native fluorescence intensities were then measured by a Perkin-Elmer Victor Wallac II fluorescence microplate reader, using λex 485 nm and λem 535 nm filters.

[7] = tested on: control renal fibroblasts; experiment: Cellular doxorubicin accumulation in control kidney fibroblasts; assay type: cell-based, mice; settings: Table 2, C6-SM 10 μM, 60 min
Experimental: as §2

BAEC [8] = experiment: Raft-mediated endocytosis: AF488-CTB uptake; assay type: cell-based, bovine; settings: 10 μM C6-SM, 120 min
Experimental: (§3) To monitor clathrin- and raft-mediated endocytic activity, confluent BAEC were allowed to take up AF488-transferrin (150 μg ml^−1) or AF488-CTB (75 μg ml^−1), respectively. Incubations were performed under serum-free conditions in the presence of 10 μM C6-SM during 120 min. Cells were then washed and lysed in PBS containing 1% (v v^−1) Triton X-100. Fluorescence was then measured at λex 485 nm and λem 535 nm.

BAEC [9] = experiment: Plasma membrane integrity: uptake of fluid phase marker hydrazide-AF488; assay type: cell-based, bovine; settings: 10 μM C6-SM
Experimental: Confluent and serum-free BAEC were incubated for 120 min in the presence of C6-SM and 175 μM of the membrane impermeant fluid phase marker hydrazide-AF488. After washing, cells were lysed in PBS containing 1% (w v^−1) Triton X-100 and fluorescence was measured at λex 485 nm and λem 535 nm. […] All data were corrected for protein contents, as determined with the BCA assay ([Smith et al, 1985]).

BAEC [10] = experiment: Clathrin-mediated endocytosis: AF488-transferrin uptake; assay type: cell-based, bovine; settings: 10 μM C6-SM, 120 min
Experimental: as §3

A431 cells = experiment: Cell viability, MTT assay; assay type: cell-based, human; settings: for EC50: Homo sapiens, 60 min exposure, 48 h further culture, read-out: Doxorubicin EC50
Experimental: After centrifugation (3000 rpm, 10 min) supernatants were removed.

BAEC [11] = experiment: cells; settings: Bos taurus
Experimental: as §4, §5

[12] = 10 μM lipid analogue with 50 μM doxorubicin, 60 min, control = no lipid, no ethanol, n=3

CCCCCCCCCC(=O)NC(CN1CCOCC1)C(O)c1ccccc1 (racemic) [PPMP]
Doxorubicin (% of control±s.d.) (BAEC [1]; Table 4, PPMP 30 μM, 96 h pretreatment, no C6-SM): 166.5±22.5 % of control

CCCCCCCCCCCCC/C=C/C(O)C(COP(=O)([O-])OCC[N+](C)(C)C)NC(C)=O (stereo not drawn) [C2-sphingomyelin, N-acetyl-sphingomyelin]
Doxorubicin (% of control±s.d.) (BAEC [1]; [12]): 129.6±19.6 % of control | Effect on doxorubicin uptake (in words) (BAEC [1]): moderate effect

CCCCCCCCCCCCCC=CC(O)C(COP(=O)([O-])OCC[N+](C)(C)C)NC(=O)CCCCC (stereo not drawn) [C6-SM, N-hexanoyl-sphingomyelin]
Concentration-dependent C6-SM effect on doxorubicin accumulation compared with BAEC [2]: Comparable results | Concentration-dependent C6-SM effect on doxorubicin accumulation compared with BAEC [3]: Comparable results | Concentration-dependent C6-SM effect on doxorubicin accumulation compared with BAEC [4]: Comparable results | Toxicity of C6-SM itself (BAEC [5]): virtually nontoxic | Increase in doxorubicin sensitivity (BAEC [5]; BAEC, 10 μM C6-SM vs none): seven-fold increase in sensitivity | Increase compared to doxorubicin uptake in the absence of the lipid analogue ([6]; like in normal fibroblasts): three- to four-fold increase | Doxorubicin (% of control±s.d.) [7]: 331.8±50.2 % of control | C6-SM concentration at which the plateau in doxorubicin-uptake enhancement and cytotoxicity is reached (BAEC [1]): about 8 μM | Enhanced doxorubicin uptake after washing away C6-SM not taken up by the cells (BAEC [1]): remained | Increase of intracellular doxorubicin over control levels (BAEC [1]; 10 μM C6-SM, 50 μM doxorubicin, incubation periods of 15–60 min): up to 300% | Doxorubicin (% of control±s.d.) (BAEC [1]; [12]): 328.3±24.4 % of control | Lipid concentration giving a significant increase in drug uptake (BAEC [1]; 50 μM doxorubicin, 60 min): 2 µM | Doxorubicin (% of control±s.d.) (BAEC [1]; Table 2, C6-SM 10 μM + ATP depletion): 410.9±157.0 % of control | Doxorubicin (% of control±s.d.) (BAEC [1]; Table 2, C6-SM 10 μM + MK571 12.5 μM): 323.3±23.0 % of control | Doxorubicin (% of control±s.d.) (BAEC [1]; Table 2, C6-SM 10 μM + PSC833 5 μM): 278.1±40.7 % of control | Doxorubicin (% of control±s.d.) (BAEC [1]; Table 2, C6-SM 10 μM alone, 60 min, n=3): 369.0±113.0 % of control | Doxorubicin (% of control±s.d.) (BAEC [1]; Table 4, C6-SM 10 μM after CDX 10 mM, 30 min): 264.7±72.1 % of control | Doxorubicin (% of control±s.d.) (BAEC [1]; Table 4, C6-SM 10 μM after PPMP 30 μM, 96 h): 340.7±78.6 % of control | Doxorubicin (% of control±s.d.) (BAEC [1]; Table 4, C6-SM 10 μM after bSMase 200 mU ml^−1, 2 h): 386.2±74.7 % of control | Doxorubicin (% of control±s.d.) (BAEC [1]; Table 4, C6-SM 10 μM, no pretreatment, n=3): 353.3±62.6 % of control | Maximum increase in doxorubicin uptake over control values (BAEC [1]; at 6 μM C6-SM, 50 μM doxorubicin, 60 min): 300% | C6-SM-stimulated doxorubicin uptake under conditions that block endocytosis (BAEC [1]; cells at 4°C or depleted for ATP (sodium azide and deoxyglucose)): remained unaffected | Active concentrations (BAEC [1]; doxorubicin uptake enhancement): 2 to 6 µM | Drug uptake-enhancing effect after removal of membrane-inserted C6-SM (BAEC [1]; hydrolysis by exogenous bSMase or BSA back-exchange, not shown): strongly diminished | Enhanced uptake of doxorubicin (BAEC [1]; low micromolar amounts of lipid (abstract)): up to 300% | CTB uptake compared to 100% uptake under control conditions (BAEC [8]): 80±23% | Hydrazide-AF488 uptake compared to 100% control uptake (BAEC [9]): 97.4±18.2% | Transferrin uptake compared to 100% uptake under control conditions (BAEC [10]): 67±36% | Increase in drug sensitivity (A431 cells; A431, with C6-SM vs none): 14 fold

CCCCCCCCCCCCC/C=C/[C@@H](O)[C@H](CO)NC(=O)CCCCC [C6-ceramide]
Doxorubicin (% of control±s.d.) (BAEC [1]; [12]): 105.6±6.5 % of control | Effect on doxorubicin uptake (in words) (BAEC [1]): little or no effect

CCCCCC(=O)OCC(COP(=O)([O-])OCC[N+](C)(C)C)OC(=O)CCCCC (stereo not drawn) [C6-phosphatidylcholine, dihexanoyl-phosphatidylcholine]
Doxorubicin (% of control±s.d.) (BAEC [1]; [12]): 101.0±28.2 % of control | Effect on doxorubicin uptake (in words) (BAEC [1]): completely without effect

CCCCCCCCCCCCC/C=C/[C@@H](O)[C@H](COP(=O)(O)O)NC(=O)CCCCCCC [C8-ceramide 1-phosphate, C8-ceramide-1-phosphate]
Doxorubicin (% of control±s.d.) (BAEC [1]; [12]): 116.5±20.6 % of control | Effect on doxorubicin uptake (in words) (BAEC [1]): little or no effect

COc1cccc2c1C(=O)c1c(O)c3c(c(O)c1C2=O)C[C@@](O)(C(=O)CO)C[C@@H]3O[C@H]1C[C@H](N)[C@H](O)[C@H](C)O1 [Doxorubicin, doxorubicin]
EC50 (BAEC [11]; read-out: Doxorubicin EC50 for BAEC toxicity, absence of C6-SM, 60 min exposure, 48 h further culture): 4000 nM | EC50 (BAEC [11]; read-out: Doxorubicin EC50 for BAEC toxicity, with 10 μM C6-SM, 60 min exposure, 48 h further culture): 600 nM | Doxorubicin (% of control±s.d.) ([6]; Table 2, no C6-SM, relative to control fibroblasts): 101.7±14.3 % of control | Doxorubicin (% of control±s.d.) (BAEC [1]; Table 2, ATP depletion (2-deoxy-D-glucose + sodium azide, 90 min), no C6-SM): 108.2±46.7 % of control | EC50 (A431 cells; A-431, A431, with C6-SM): 130 nM | EC50 (A431 cells; A-431, A431, without C6-SM): 1800 nM

CN(C)C(=O)CCSC(SCCC(=O)O)c1cccc(/C=C/c2ccc3ccc(Cl)cc3n2)c1 (stereo not drawn) [MK571]
Doxorubicin (% of control±s.d.) (BAEC [1]; Table 2, MK571 12.5 μM, no C6-SM): 103.5±30.2 % of control
